Test results taken from US7351722B2, “Use of Mangafodipir for treating oxidative stress effects” (Universite Rene Descartes (Paris V), priority 2001, dated 2008).

Tests used:
[1] = tested on: hepatocellular deficiency; conditions: inventors' prior studies (PCT/WO 01/12327; Ferret et al. 2001); cited from earlier work
[2] = tested on: acetaminophen-induced acute hepatic failure; test: Animal survival in acetaminophen-induced acute hepatic failure, comparison of Mangafodipir, MnTBAP and CuDIPS (Example 7); format: in vivo, mice; conditions: for number of surviving animals: 10 mg/kg bolus 2 h before 1000 mg/kg APAP, n = 12
Protocol: The Mangafodipir, the MnTBAP or the CuDIPS are administered in the form of a bolus, in the preventive capacity, 2 hours before the acetaminophen.
Animal survival is monitored for 24 hours after the administration of acetaminophen.

## CC(C)c1cc(C(=O)[O-])c(O)c(C(C)C)c1.CC(C)c1cc(C(=O)[O-])c(O)c(C(C)C)c1.[Cu+2] [CuDIPS, Cu[II]-[diisopropylsalicylate]]
[1]
  effect on hepatocellular deficiency: no significant effect
[2]; time 0 h
  number of surviving animals: 12
[2]; time 6 h
  number of surviving animals: 12
[2]; time 8 h
  number of surviving animals: 11
[2]; time 9 h
  number of surviving animals: 10
[2]; time 10 h
  number of surviving animals: 9
[2]; time 11 h
  number of surviving animals: 7
[2]; time 12 h
  number of surviving animals: 7
[2]; time 13 h
  number of surviving animals: 5
[2]; time 14 h
  number of surviving animals: 5
[2]; time 15 h
  number of surviving animals: 5
[2]; time 16 h
  number of surviving animals: 4
[2]; time 17 h
  number of surviving animals: 4
[2]; time 18 h
  number of surviving animals: 3
[2]; time 20 h
  number of surviving animals: 3
[2]; time 22 h
  number of surviving animals: 3
[2]; time 24 h
  number of surviving animals: 3
[2]; 10 mg/kg preventively, 1000 mg/kg APAP, 24 h
  effect on survival rate: does not significantly increase the survival rate

## O=C(O)c1ccc(-c2c3nc(c(-c4ccc(C(=O)O)cc4)c4ccc([n-]4)c(-c4ccc(C(=O)O)cc4)c4nc(c(-c5ccc(C(=O)O)cc5)c5ccc2[n-]5)C=C4)C=C3)cc1.[Mn+3] [MnTBAP, Mn(III)-tetrakis(5,10,15,20-benzoic acid)-porphyrin]
[1]
  effect on hepatocellular deficiency: notable preventive and curative effect
[2]; time 0 h
  number of surviving animals: 12
[2]; time 6 h
  number of surviving animals: 12
[2]; time 8 h
  number of surviving animals: 12
[2]; time 9 h
  number of surviving animals: 12
[2]; time 10 h
  number of surviving animals: 11
[2]; time 11 h
  number of surviving animals: 10
[2]; time 12 h
  number of surviving animals: 10
[2]; time 13 h
  number of surviving animals: 10
[2]; time 14 h
  number of surviving animals: 9
[2]; time 15 h
  number of surviving animals: 9
[2]; time 16 h
  number of surviving animals: 8
[2]; time 17 h
  number of surviving animals: 8
[2]; time 18 h
  number of surviving animals: 8
[2]; time 20 h
  number of surviving animals: 8
[2]; time 22 h
  number of surviving animals: 7
[2]; time 24 h
  number of surviving animals: 7
